Results from publication PMC5025780, “Copper(II) ions affect the gating dynamics of the 20S proteasome: a molecular and in cell study” (Scientific Reports, 2016).
Like-named read-outs stand apart in the source and are kept apart here.

Experiments:
[1] = molecular target: T1, human 20S proteasome (hCP), C-L activity; test: C-L peptidase activity of isolated hCP (fluorogenic substrate); assay type: biochemical
T1 construct: purchased Boston Biochem (Cambridge, MA, USA)
Source text: (§1) Purified human 20S proteasome (hCP) and the fluorogenic substrates Suc-LLVY-AMC, Z-Leu-Leu-Glu-AMC, and Ac-Arg-Leu-Arg-AMC used to assay the ChT-L, T-L, and C-L activity, were from Boston Biochem (Cambridge, MA, USA). Bathocuproinedisulfonic acid disodium salt (BCS), dithiothreitol (DTT), N-Acetyl-L-Cysteine (NAC), Sodium dodecylsulphate (SDS) as well as CuCl2 and Zn(NO3)2 were from Sigma-Aldrich (St. Louis, MO). Proteasome inhibitors Epoxomicin were obtained from Enzo Life Science. Wild type 20S proteasome isolated from Saccharomices Cerevisiae (yCP) and a mutant (α3ΔN) where nine residues of the N-terminal tail of the α3 subunit are deleted to provide a permanently open-gate conformations were isolated as described elsewhere.
Peptidase activities of hCP (2 nM) were assayed on in 50 μL Tris 25 mM pH 7.6, at 37 °C with 100 μM of the fluorogenic substrate. hCP was incubated with Cu(II)/Zn(II) ions for 1 h prior activity assays. The fluorescence signal activated by peptide cleavage was recorded at 440 nm (excitation at 360 nm) for 45 min, by a Varioskan (Thermo^©) plate reader in 384 multiwell plates. Three replicates were performed for each data point. Data were reported as normalized percentages of residual activity. The potency (IC50) was calculated from the value of the dose response plot corresponding at a fractional activity of 50%. The IC50 values were determined using a non linear fit of experimental data in according to equation: […]
The midpoint of this function occurs at a fractional activity value of 50%, corresponding to half inhibition of the target enzyme. The IC50 values and their standard errors were deduced from the fitting. To evaluate if copper is a reversible PI, we measured the ChT-L activity of hCP incubated with Cu(II) (2.20 μM) before and after addition of an equimolar amount of EDTA.

HeLa cells = system: HeLa cells; parameters: method as in PMID 9057888, PMID 21584299; details: Cu(II)-supplemented media up to 100 μM; cited from earlier work
[2] = system: T2, α3ΔN mutant 20S proteasome; test: ChT-L peptidase activity of α3ΔN open-gate mutant yeast proteasome; assay type: biochemical, Saccharomices Cerevisiae; details: permanently open gate mutant
T2 construct: made in house; host or cells: Saccharomyces cerevisiae (mutant strain)
Source text: All the experimental data collected so far reconcile with the hypothesis that Cu(II) ions have a direct influence on the gating mechanisms of the 20S proteasome. To further validate this hypothesis, we assayed the effect of Cu(II) ions on the ChT-L peptidase activity of a mutant proteasome (α3ΔN) where deletion of the first nine N terminal residues of the α3 subunit results in permanently open gate conformation. […] It is worthy to remark here that several histidine residues are located at the entrance of the channel and, more specifically in the proximity of the N-terminal tail of the α3 subunit (Fig. 4 panels B and C). It is tempting to speculate that these His residues may play a major role in driving the Copper(II) –mediated gating dynamics.
as §1, with “Wild type 20S proteasome isolated from Saccharomices Cerevisiae (yCP) and a mutant (α3ΔN) where nine residues of the N-terminal tail of the α3 subunit are deleted to provide a permanently open-gate conformations were isolated as described elsewhere.” left out

## [Cl][Cu][Cl] [Cu(II), CuCl2]
[1]; hCP 2 nM, 1 h preincubation with ions, Tris 25 mM pH 7.6, 37 °C, no SDS, read-out: IC50 C-L
  IC50: 1010 nM
[1]; in the presence of 0.018% SDS, other conditions unmodified, read-out: IC50 C-L, Cu(II) + SDS
  IC50: 1830 nM
HeLa cells
  HeLa cell growth: not inhibited
[2]
  Effect on ChT-L peptidase activity of α3ΔN mutant: did not affect proteasome activity
